Ten compounds from US20100273805A1, “SULPHIDE BRIDGED DERIVATIVES AS MODULATORS OF MGLUR5 733” (AstraZeneca AB, priority 2009, published 2010) can be followed below.

Series [1] has as its target T1, human mGluR5d (Homo sapiens, UniProt P41594).
T1 construct: expressed in transfected cells
Kind of series: FLIPR assay, mobilization of intracellular calcium in cells expressing human mGluR5d. The series is classed as cell-based. Particulars: antagonism in cells expressing human mGluR5d, fluo-4 calcium signal; read-out: FLIPR hmGluR5d. From the text:
Functional Assessment of mGluR5 Antagonism in Cell Lines Expressing mGluR5D
The properties of the compounds of the invention can be analyzed using standard assays for pharmacological activity. Examples of glutamate receptor assays are well known in the art as described in for example Aramori et al., Neuron 8:757 (1992), Tanabe et al., Neuron 8:169 (1992), Miller et al., J. Neuroscience 15: 6103 (1995), Balazs, et al., J. Neurochemistry 69:151 (1997). The methodology described in these publications is incorporated herein by reference. Conveniently, the compounds of the invention can be studied by means of an assay (FLIPR) that measures the mobilization of intracellular calcium, [Ca^2+]i in cells expressing mGluR5 or another assay (IP3) that measures inositol phosphate accumulation.
Cells expressing human mGluR5d as described in WO97/05252 cultured in a mixture of high glucose DMEM with Glutamax (31966-021) (500 mL), 10% dialyzed fetal bovine serum (Hyclone #SH30079.03)(56 mL), 200 ug/mL Hygromycin B (Invitrogen 45-0430, 50 mg/mL) (2.2 mL), 200 ug/mL Zeocin (Invitrogen #R250-01; 100 mg/mL) (1.1 mL) are seeded at a density of 15,000 cells per well on a black poly-D Lysin coated 384-plate with clear bottom (BD Biocoat 356663). Cells are allowed to adhere over night before experiments. All assays are done in a buffer containing 146 mM NaCl, 5 mM KCl, 1 mM MgCl2, 1 mM CaCl2, 20 mM HEPES, 1 mg/mL glucose and 1 mg/mL BSA Fraction IV (pH 7.4). Cell cultures in the 384-well plates are loaded for 60 minutes in the above mentioned buffer containing 3 μM of the acetoxymethyl ester form of the fluorescent calcium indicator fluo-4 (Molecular Probes, Eugene, Oreg.) in 0.025% pluronic acid (a proprietary, non-ionic surfactant polyol—CAS Number 9003-11-6). Following the loading period, the fluo-4 buffer is removed and the cellplate is washed three times with fresh assay buffer. FLIPR experiments are done using a laser setting of 1.0 W and 0.4 second CCD camera shutter speed with excitation and emission wavelengths of 488 nm and 562 nm, respectively.
Each experiment is initiated with 20 μl of buffer present in each well of the cell plate when 7.5 μl from the antagonist plate is added. After 30 minutes incubation in the dark at 25° C., 20 μL from the agonist plate is added to the wells. The fluorescence signal is sampled 60 times at 1 second intervals followed by 20 samples at 6 seconds intervals immediately after the agonist addition. Responses are measured as the difference between the peak height of the response to agonist, less the background fluorescence within the sample period. IC50 determinations are made using a […] least squares fitting program.

Series [2] is described as follows: Determination of brain to plasma ratio in rat. Particulars: brain and plasma, female Sprague Dawley rats, drug in brain over drug in plasma, read-out: Brain/Plasma Ratio of compound in Rat. The series is classed as in vivo. As to the method:
Brain to plasma ratios are estimated in female Sprague Dawley rats. The compound is dissolved in water or another appropriate vehicle. For determination of brain to plasma ratio the compound is administrated as a subcutaneous, or an intravenous bolus injection, or an intravenous infusion, or an oral administration. At a predetermined time point after the administration a blood sample is taken with cardiac puncture. The rat is terminated by cutting the heart open, and the brain is immediately retained. The blood samples are collected in heparinized tubes and centrifuged within 30 minutes, in order to separate the plasma from the blood cells. The plasma is transferred to 96-well plates and stored at −20° C. until analysis. The brains are divided in half, and each half is placed in a pre-tarred tube and stored at −20° C. until analysis. Prior to the analysis, the brain samples are thawed and 3 mL/g brain tissue of distilled water is added to the tubes. The brain samples are sonicated in an ice bath until the samples are homogenized. Both brain and plasma samples are precipitated with acetonitrile. After centrifugation, the supernatant is diluted with 0.2% formic acid. Analysis is performed on a short reversed-phase HPLC column with rapid gradient elution and MSMS detection using a triple quadrupole instrument with electrospray ionisation and Selected Reaction Monitoring (SRM) acquisition. Liquid-liquid extraction may be used as an alternative sample clean-up. The samples are extracted, by shaking, to an organic solvent after addition of a suitable buffer. An aliquot of the organic layer is transferred to a new vial and evaporated to dryness under a stream of nitrogen. After reconstitution of the residuals the samples are ready for injection onto the HPLC column.

Where only a bound is given, the exact number is not on record here.

T1 sequence (P41594 21-942 isoform P41594-3 limits assumed): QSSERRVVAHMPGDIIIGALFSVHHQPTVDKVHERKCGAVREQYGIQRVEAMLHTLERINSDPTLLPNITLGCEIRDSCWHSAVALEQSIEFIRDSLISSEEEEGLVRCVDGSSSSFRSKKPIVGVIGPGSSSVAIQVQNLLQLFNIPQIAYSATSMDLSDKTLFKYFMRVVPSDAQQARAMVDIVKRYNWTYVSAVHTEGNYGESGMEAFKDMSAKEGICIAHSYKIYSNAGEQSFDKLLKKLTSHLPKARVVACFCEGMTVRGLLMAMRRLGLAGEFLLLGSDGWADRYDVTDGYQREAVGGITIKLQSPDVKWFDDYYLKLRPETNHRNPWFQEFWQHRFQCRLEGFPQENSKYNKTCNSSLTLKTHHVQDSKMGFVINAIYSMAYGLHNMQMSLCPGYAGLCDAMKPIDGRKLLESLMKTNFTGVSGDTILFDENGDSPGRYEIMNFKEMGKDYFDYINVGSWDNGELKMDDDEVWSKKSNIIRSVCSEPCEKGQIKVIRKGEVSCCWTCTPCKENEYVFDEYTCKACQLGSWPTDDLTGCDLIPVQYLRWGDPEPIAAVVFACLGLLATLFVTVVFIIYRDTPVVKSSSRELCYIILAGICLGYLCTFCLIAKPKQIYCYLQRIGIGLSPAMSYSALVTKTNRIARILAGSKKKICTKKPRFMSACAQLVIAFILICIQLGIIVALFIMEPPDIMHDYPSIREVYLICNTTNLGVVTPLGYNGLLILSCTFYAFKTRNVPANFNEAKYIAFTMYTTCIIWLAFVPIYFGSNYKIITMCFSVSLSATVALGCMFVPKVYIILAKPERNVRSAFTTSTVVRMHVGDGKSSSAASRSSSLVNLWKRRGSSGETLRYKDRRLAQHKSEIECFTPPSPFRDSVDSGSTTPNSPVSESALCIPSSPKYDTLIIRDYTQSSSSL

Take `Cc1cccc(-n2nnc([C@@H](C)Sc3nnc(-c4cc[nH]c(=O)c4)n3C)n2)c1` [Example 8.1, (R)-4-(4-Methyl-5-(1-(2-m-tolyl-2H-tetrazol-5-yl)ethylthio)-4H-1,2,4-triazol-3-yl)pyridin-2(1H)-one]: in series [1], the IC50 is 19 nM. Also, the Kp in series [2] was below 0.01.

Consider `Cc1cccc(-n2nnc([C@@H](C)Sc3nnc(-c4ccn(C)c(=O)c4)n3C)n2)c1` [Example 8.2, (R)-1-Methyl-4-(4-methyl-5-(1-(2-m-tolyl-2H-tetrazol-5-yl)ethylthio)-4H-1,2,4-triazol-3-yl)pyridin-2(1H)-one], for which, in series [1], the IC50 stood at 87 nM. In series [2], the Kp was 0.1.

On to `Cc1cccc(-c2nc([C@@H](C)Sc3nnc(-c4cc[nH]c(=O)c4)n3C)no2)c1` [Example 8.3], for which the IC50 in series [1] was determined as 24 nM. The Kp in series [2] stood at 0.09.

On to `Cc1cccc(-c2nc([C@@H](C)Sc3nnc(-c4ccn(C)c(=O)c4)n3C)no2)c1` [Example 8.4, (R)-1-Methyl-4-(4-methyl-5-(1-(5-m-tolyl-1,2,4-oxadiazol-3-yl)ethylthio)-4H-1,2,4-triazol-3-yl)pyridin-2(1H)-one], for which the IC50 in series [1] came to 30 nM. Moreover, the Kp in series [2] amounted to 0.16.

As to `Cc1cccc(-c2cc([C@@H](C)Sc3nnc(-c4cc[nH]c(=O)c4)n3C)no2)c1` [Example 8.5, (R)-4-(4-Methyl-5-(1-(5-m-tolylisoxazol-3-yl)ethylthio)-4H-1,2,4-triazol-3-yl)pyridin-2(1H)-one], in series [1], the IC50 turned out to be 146 nM. In series [2], the Kp was below 0.01.

For the compound `Cc1cccc(-c2cc([C@@H](C)Sc3nnc(-c4ccn(C)c(=O)c4)n3C)no2)c1` [Example 8.6, (R)-1-Methyl-4-(4-methyl-5-(1-(5-m-tolylisoxazol-3-yl)ethylthio)-4H-1,2,4-triazol-3-yl)pyridin-2(1H)-one], the IC50 in series [1] amounted to 380 nM. The Kp in series [2] stood at 0.02.

As for `Cc1cccc(-c2cc([C@@H](C)Sc3nnc(-c4cn[nH]c(=O)c4)n3C)no2)c1` [Example 8.7, (R)-5-(4-Methy1-5-(1-(5-m-tolylisoxazol-3-yl)ethylthio)-4H-1,2,4-triazol-3-yl)pyridazin-3(2H)-one], the IC50 in series [1] was determined as 19 nM. The Kp in series [2] was 0.26.

For the compound `Cc1cccc(-n2nnc([C@@H](C)Sc3nnc(-c4cn[nH]c(=O)c4)n3C)n2)c1` [Example 8.8, (R)-5-(4-Methyl-5-(1-(2-m-tolyl-2H-tetrazol-5-yl)ethylthio)-4H-1,2,4-triazol-3-yl)pyridazin-3(2H)-one], the IC50 in series [1] amounted to 18 nM. Also, in series [2], the Kp was below 0.01.

For `C[C@@H](Sc1nnc(-c2cn[nH]c(=O)c2)n1C)c1nnn(-c2cccc(Cl)c2)n1` [Example 8.9, (R)-5-(5-(1-(2-(3-Chlorophenyl)-2H-tetrazol-5-yl)ethylthio)-4-methyl-4H-1,2,4-triazol-3-yl)pyridazin-3(2H)-one], the IC50 in series [1] is 18 nM. In addition, the Kp in series [2] was below 0.015.

Take `Cc1cccc(-c2nc([C@@H](C)Sc3nnc(-c4cn[nH]c(=O)c4)n3C)no2)c1` [Example 8.10, (R)-5-(4-Methyl-5-(1-(5-m-tolyl-1,2,4-oxadiazol-3-yl)ethylthio)-4H-1,2,4-triazol-3-yl)pyridazin-3(2H)-one]: the IC50 in series [1] worked out at 41 nM. For the same compound, the Kp in series [2] is 0.04.
